Source: patent publication US20130252890A1, “6,7-DIHYDRO-5H-BENZO[7]ANNULENE DERIVATIVES, PROCESS FOR PREPARATION THEREOF, PHARMACEUTICAL PREPARATIONS COMPRISING THEM, AND THE USE THEREOF FOR PRODUCTION OF MEDICAMENTS” (BAYER INTELLECTUAL PROPERTY GMBH, priority 2010, published 2013)

These compounds were tested against T1, oestrogen receptor (ER) (Homo sapiens, UniProt P03372) (assay: Anti-oestrogenic action in MVLN cells (inhibition of estradiol-induced luciferase)). Settings: inhibition of estradiol-induced luciferase signal, value of Ex. 44 is a mean value, read-out: Antioestrogenic action in vitro: MVLN transactivation antagonism IC50.
T1 construct: These MVLN cells express, along with the functional oestrogen receptor (ER), a reporter construct; endogenous in cells; host or cells: MVLN cells (MCF7 derivative carrying a luciferase reporter construct)
T1 sequence (P03372 1-595): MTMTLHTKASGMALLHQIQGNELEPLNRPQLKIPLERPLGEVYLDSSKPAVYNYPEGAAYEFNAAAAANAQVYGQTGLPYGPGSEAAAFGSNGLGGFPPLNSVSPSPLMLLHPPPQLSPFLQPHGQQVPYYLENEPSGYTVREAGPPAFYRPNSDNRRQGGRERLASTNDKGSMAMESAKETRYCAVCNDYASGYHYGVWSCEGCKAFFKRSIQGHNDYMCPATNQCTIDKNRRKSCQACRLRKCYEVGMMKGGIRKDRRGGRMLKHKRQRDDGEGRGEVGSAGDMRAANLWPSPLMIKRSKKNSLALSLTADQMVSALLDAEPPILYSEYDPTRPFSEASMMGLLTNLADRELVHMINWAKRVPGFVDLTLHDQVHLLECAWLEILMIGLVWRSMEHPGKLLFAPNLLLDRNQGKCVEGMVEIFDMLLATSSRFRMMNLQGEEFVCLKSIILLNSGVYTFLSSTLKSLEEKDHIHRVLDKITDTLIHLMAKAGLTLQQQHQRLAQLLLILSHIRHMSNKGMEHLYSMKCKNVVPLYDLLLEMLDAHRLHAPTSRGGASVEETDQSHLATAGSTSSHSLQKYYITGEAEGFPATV
Type: cell-based
How it was run: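 MVLN cells, MCF7 breast cancer derivatives carrying functional ER plus an ER-activated luciferase reporter, were treated with compounds in the presence of estradiol. Anti-oestrogenic activity taken as inhibition of the estradiol-induced luciferase signal.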

Structure (SMILES)	IC50 [nM]
CCN(CCCCCCC1=C(c2cc(F)cc(F)c2)CCCc2cc(O)ccc21)CCCS(=O)(=O)CCC(F)(F)F [Example 14, 8-(3,5-Difluorophenyl)-9-[6-(ethyl{3-[(3,3,3-trifluoropropyl)sulphonyl]propyl}amino)hexyl]-6,7-dihydro-5H-benzo[7]annulen-3-ol]	168
CN(CCCCCCC1=C(c2ccc(F)cc2)CCCc2c1ccc(O)c2F)CCCS(=O)(=O)CCC(F)(F)F [Example 37, 4-Fluoro-8-(4-fluorophenyl)-9-[6-(methyl{3-[(3,3,3-trifluoropropyl)sulphonyl]propyl}amino)hexyl]-6,7-dihydro-5H-benzo[7]annulen-3-ol]	53
O=S(=O)(CCCCN(CCO)CCCCCCC1=C(c2ccc(F)cc2)CCCc2cc(O)ccc21)CCCC(F)(F)F [Example 92, 8-(4-Fluorophenyl)-9-{6-[(2-hydroxyethyl){4-[(4,4,4-trifluorobutyl)sulphonyl]butyl}amino]hexyl}-6,7-dihydro-5H-benzo[7]annulen-3-ol]	5
CN(CCCCCC1=C(c2ccc(F)cc2)CCCc2cc(O)ccc21)CCCCS(=O)(=O)CCC(F)(F)F [Example 52, 8-(4-Fluorophenyl)-9-[5-(methyl{4-[(3,3,3-trifluoropropyl)sulphonyl]butyl}amino)pentyl]-6,7-dihydro-5H-benzo[7]annulen-3-ol]	521
CN(CCCCCCC1=C(c2ccc(F)cc2)CCCc2cc(O)c(F)cc21)CCCCS(=O)(=O)CCC(F)(F)F [Example 106, 2-Fluoro-8-(4-fluorophenyl)-9-[6-(methyl{4-[(3,3,3-trifluoropropyl)sulphonyl]butyl}amino)hexyl]-6,7-dihydro-5H-benzo[7]annulen-3-ol]	10
CN(CCCCCCC1=C(c2ccc(F)cc2F)CCCc2cc(O)ccc21)CCCS(=O)(=O)CCCC(F)(F)C(F)(F)F [Example 128, 8-(2,4-Difluorophenyl)-9-[6-(methyl{3-[(4,4,5,5,5-pentafluoropentyl)sulphonyl]propyl}amino)hexyl]-6,7-dihydro-5H-benzo[7]annulen-3-ol]	6
CN(CCCCCCC1=C(c2ccc(F)cc2)CCCc2c1ccc(O)c2F)CCCS(=O)(=O)CCCC(F)(F)F [Example 38, 4-Fluoro-8-(4-fluorophenyl)-9-[6-(methyl{3-[(4,4,4-trifluorobutyl)sulphonyl]propyl}amino)hexyl]-6,7-dihydro-5H-benzo[7]annulen-3-ol]	27
CN(CCCCCCC1=C(c2ccc(F)cc2)CCCc2cc(O)ccc21)CCCS(=O)(=O)CCC(F)(C(F)(F)F)C(F)(F)F [Example 110, 8-(4-Fluorophenyl)-9-{6-[methyl(3-{[3,4,4,4-tetrafluoro-3-(trifluoromethyl)butyl]sulphonyl}propyl)amino]hexyl}-6,7-dihydro-5H-benzo[7]annulen-3-ol]	73
CN(CCCCCCC1=C(c2ccc(F)c(F)c2)CCCc2cc(O)ccc21)CCC[S+]([O-])CCCC(F)(F)C(F)(F)F (stereo not drawn) [Example 24, 8-(3,4-Difluorophenyl)-9-[6-(methyl{3-[(4,4,5,5,5-pentafluoropentyl)sulphinyl]propyl}amino)hexyl]-6,7-dihydro-5H-benzo[7]annulen-3-ol]	8
O=S(=O)(CCCCN(CCO)CCCCCCC1=C(c2ccc(F)cc2)CCCc2cc(O)ccc21)CCC(F)(C(F)(F)F)C(F)(F)F [Example 109, 8-(4-Fluorophenyl)-9-{6-[(2-hydroxyethyl)(4-{[3,4,4,4-tetrafluoro-3-(trifluoromethyl)butyl]sulphonyl}butyl)amino]hexyl}-6,7-dihydro-5H-benzo[7]annulen-3-ol]	26
CC(C)(C)N(CCCCCCC1=C(c2ccc(F)cc2)CCCc2c1ccc(O)c2F)CCCS(=O)(=O)CCCC(F)(F)C(F)(F)F [Example 63, 9-[6-(tert-Butyl{3-[(4,4,5,5,5-pentafluoropentyl)sulphonyl]propyl}amino)hexyl]-4-fluoro-8-(4-fluorophenyl)-6,7-dihydro-5H-benzo[7]annulen-3-ol]	95

More lines, now with the values ahead:

IC50 [nM]	Structure (SMILES)
29	O=S(=O)(CCCN(CCO)CCCCCCC1=C(c2ccc(F)cc2)CCCc2cc(O)ccc21)CCC(F)(F)F [Example 56, 8-(4-Fluorophenyl)-9-{6-[(2-hydroxyethyl){3-[(3,3,3-trifluoropropyl)sulphonyl]propyl}amino]hexyl}-6,7-dihydro-5H-benzo[7]annulen-3-ol]
4	CN(CCCCCCC1=C(c2ccc(F)cc2)CCCc2cc(O)c(F)cc21)CCCS(=O)(=O)CCCCCC(F)(F)F [Example 140, 2-Fluoro-8-(4-fluorophenyl)-9-[6-(methyl{3-[(6,6,6-trifluorohexyl)sulphonyl]propyl}amino)hexyl]-6,7-dihydro-5H-benzo[7]annulen-3-ol]
16	O=S(=O)(CCCN(CCO)CCCCCCC1=C(c2ccc(F)cc2)CCCc2c1ccc(O)c2F)CCCC(F)(F)C(F)(F)F [Example 59, 4-Fluoro-8-(4-fluorophenyl)-9-{6-[(2-hydroxyethyl){3-[(4,4,5,5,5-pentafluoropentyl)sulphonyl]propyl}amino]hexyl}-6,7-dihydro-5H-benzo[7]annulen-3-ol]
13	CN(CCCCCCC1=C(c2ccc(F)cc2)CCCc2c1ccc(O)c2F)CCC[S+]([O-])CCCC(F)(F)C(F)(F)F (stereo not drawn) [Example 42, 4-Fluoro-8-(4-fluorophenyl)-9-[6-(methyl{3-[(4,4,5,5,5-pentafluoropentyl)sulphinyl]propyl}amino)hexyl]-6,7-dihydro-5H-benzo[7]annulen-3-ol]
9	CN(CCCCCCC1=C(c2ccc(F)c(F)c2)CCCc2cc(O)ccc21)CCCC[S+]([O-])CCCC(F)(F)C(F)(F)F (stereo not drawn) [Example 20, 8-(3,4-Difluorophenyl)-9-[6-(methyl{4-[(4,4,5,5,5-pentafluoropentyl)sulphinyl]butyl}amino)hexyl]-6,7-dihydro-5H-benzo[7]annulen-3-ol]
10	CN(CCCCCCC1=C(c2ccc(F)cc2)CCCc2cc(O)c(F)cc21)CCCS(=O)(=O)CCCCC(F)(F)F [Example 102, 2-Fluoro-8-(4-fluorophenyl)-9-[6-(methyl{3-[(5,5,5-trifluoropentyl)sulphonyl]propyl}amino)hexyl]-6,7-dihydro-5H-benzo[7]annulen-3-ol]
10	CN(CCCCCCC1=C(c2ccc(F)cc2)CCCc2cc(O)c(F)cc21)CCCCS(=O)(=O)C1CCC(F)(F)CC1 [Example 144, 9-{6-[{4-[(4,4-Difluorocyclohexyl)sulphonyl]butyl}(methyl)amino]hexyl}-2-fluoro-8-(4-fluorophenyl)-6,7-dihydro-5H-benzo[7]annulen-3-ol]
69	O=S(=O)(CCCN(CCO)CCCCCCC1=C(c2ccc(F)cc2)CCCc2cc(O)ccc21)CCC(F)(C(F)(F)F)C(F)(F)F [Example 108, 8-(4-Fluorophenyl)-9-{6-[(2-hydroxyethyl)(3-{[3,4,4,4-tetrafluoro-3-(trifluoromethyl)butyl]sulphonyl}propyl)amino]hexyl}-6,7-dihydro-5H-benzo[7]annulen-3-ol]
17	CN(CCCCCCC1=C(c2cc(F)cc(F)c2)CCCc2cc(O)ccc21)CCCCS(=O)(=O)CCCC(F)(F)C(F)(F)F [Example 9, 8-(3,5-Difluorophenyl)-9-[6-(methyl{4-[(4,4,5,5,5-pentafluoropentyl)sulphonyl]butyl}amino)hexyl]-6,7-dihydro-5H-benzo[7]annulen-3-ol]
9	CN(CCCCCCC1=C(c2ccccc2F)CCCc2cc(O)ccc21)CCCS(=O)(=O)CCCC(F)(F)C(F)(F)F [Example 126]
